In one test the target is T1, GCNF LBD F361A (Homo sapiens, UniProt Q15406, F361A).
T1 construct: Human GCNF (NR6A1) LBD (residues 248-480) and mutants F284A/F361A; hexahistidine tag with 3C protease site; made in house; host or cells: E. coli BL(21) DE3
T1 sequence (Q15406 248-480 F361A): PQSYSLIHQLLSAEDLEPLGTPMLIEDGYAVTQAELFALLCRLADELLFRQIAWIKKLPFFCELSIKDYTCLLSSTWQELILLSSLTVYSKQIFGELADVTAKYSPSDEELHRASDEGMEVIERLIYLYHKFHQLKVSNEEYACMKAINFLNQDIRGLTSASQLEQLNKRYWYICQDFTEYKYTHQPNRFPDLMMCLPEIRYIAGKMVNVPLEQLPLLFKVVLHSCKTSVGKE
Description: DSF of GCNF LBD mutant F361A. In kind it is binding. As to conditions: 20 μM ligand. Here is the method:
(§1) Protein Expression and Purification. Human GCNF (NR6A1) LBD (residues 248-480) and mutants F284A/F361A, human LRH-1 (NR5A2) LBD (residues 291-541), human RXRα LBD (residues 223-462), human COUP-TF I LBD (residues 184-410) and human SF-1 LBD (residues 219-461) were subcloned in pET45b(+) plasmid (Novagen) were expressed in E. coli BL(21) DE3 cells in terrific broth with 0.1 mg/mL ampicillin as 3C protease-cleavable hexahistidine-tagged fusion proteins. The bacterial culture was grown at 37° C. to an optical density of 0.8 to 1.0 at 600 nm. Protein expression was induced by adding 1 mM IPTG and was allowed to proceed for 14 h at 22° C. […]
(§2) DSF Assay. […] A total of 450 compounds (Life Chemicals) previously selected from a nuclear-receptor-biased library targeting REV-ERB were analyzed. Thermal stability was assessed on a Quantstudio 6 instrument (Biosystems) by ramping the temperature from 25° C. to 95° C. at 0.05° C./s and protein melt shifts were subsequently quantified by Boltzmann-derived melting temperature (Tm) using the Protein Thermal Shift (ThermoFisher) software. […]

Test [1] relates to GCNF single point mutations F284A, Y336F and F361A with SMRT ID2 peptide. Description: FP SMRT ID2 recruitment with GCNF point mutants. In kind it is biochemical, human. As to conditions: Y336F and F361A vs wild-type. Here is the method: (§3) FP Assay. Fluorescence polarization (FP) assays were performed in triplicate on a 384-well Corning 3820 black opaque plate using a Biotek Synergy Neo2 HTS multimode microplate reader at excitation and emission wavelengths of 485 nm and 538 nm, respectively. Data were analyzed and plotted using GraphPad Prism as mean±SEM.
(§4) For the FP ligand titration assay, the aforementioned N-terminus fluorescein-tagged corepressor peptides were diluted to 500 nM from a 100 μM DMSO stock in the presence of 20 μM GCNF LBD and ligand concentration points 30, 20, 13, 9, 6, 4, 2.6, 1.7 and 0 μM in assay buffer containing 50 mM HEPES (pH 7.5), 50 mM KCl, 5 mM TCEP, 0.5 mM EDTA and 0.005% Tween20. The relative polarization was plotted against log of ligand concentration (μM) and the half maximal effective concentration (EC50) values were derived via sigmoidal fit.

A further test deals with T2, GCNF LBD (Homo sapiens, UniProt Q15406).
T2 construct: Human GCNF (NR6A1) LBD (residues 248-480); made in house; host or cells: E. coli BL(21) DE3
T2 sequence (Q15406 248-480): T1 sequence (Q15406 248-480 F361A) with A114F
Put plainly: Solution 1H NMR methyl peak perturbation of GCNF LBD. The class given is binding. As to conditions: 1.05:1 molar equivalence of ligand; seven shielded resonances monitored. Here is the method:
Solution NMR spectroscopy. One hundred micromolar (100 μM) of GCNF LBD with 10% D2O were mixed with either 0.5% DMSO-d6 or 1.05:1 molar equivalence of ligand and transferred to a Shigemi tube. ^1H NMR data were acquired at 298 K on a 700 MHz Bruker Avance II HDTM NMR instrument equipped with a QCI cryoprobe. For each spectrum, 1024 transients were collected into 32,000 data points, with a spectral width of 16.7 kHz. Data were analyzed using Topspin 3.5 pl 7.

The target of test [2] is T3, GCNF LBD with NCoR ID1 corepressor peptide (Homo sapiens, UniProt Q15406).
T3 construct: Human GCNF (NR6A1) LBD (residues 248-480); made in house; host or cells: E. coli BL(21) DE3
T3 sequence (Q15406 248-480): T1 sequence (Q15406 248-480 F361A) with A114F
Put plainly: FP ligand titration assay, NCoR ID1 peptide recruitment. In kind it is biochemical. As to conditions: 20 μM GCNF LBD. The protocol:
as §3, §4

The target in the next test is T4, GCNF LBD F284A (Homo sapiens, UniProt Q15406, F284A).
T4 construct: Human GCNF (NR6A1) LBD (residues 248-480) and mutants F284A/F361A; hexahistidine tag with 3C protease site; made in house; host or cells: E. coli BL(21) DE3
T4 sequence (Q15406 248-480 F284A): T1 sequence (Q15406 248-480 F361A) with F37A, A114F
Put plainly: DSF of GCNF LBD mutant F284A. In kind it is binding. The conditions noted are these: 20 μM ligand. Here is the method:
as §1, §2

Numbering of substitutions follows the chain as printed.

Turning to `Cc1ccc(-n2ncc3c(N4CCOCC4)nc(NCc4ccco4)nc32)cc1` [Ligand 34, N-[(furan-2-yl)methyl]-1-(4-methylphenyl)-4-(morpholin-4-yl)-1H-pyrazolo[3,4-d]pyrimidin-6-amine], the “effect of mutation F361A on ΔTm compared to WT” value at GCNF LBD F361A was “substantially decreased the ΔTm”. The “SMRT-ID2 peptide recruitment by GCNF mutants” value in test [1] is recorded as “substantially weakened corepressor peptide recruitment”. The “shielded methyl 1H NMR resonances of GCNF LBD perturbed” value on GCNF LBD is on record as 5 of 7. In test [2], the “effect on recruitment of NCoR ID1 to GCNF” value is “did not substantially alter”. Further, the “effect of mutation F284A on ΔTm compared to WT” value on GCNF LBD F284A was “substantially decreased the ΔTm”.
On to `O=C(Cn1cc(S(=O)(=O)c2ccccc2)c2ccccc21)N1CCc2ccccc21` [Ligand 80, 2-[3-(benzenesulfonyl)-1H-indol-1-yl]-1-(2,3-dihydro-1H-indol-1-yl)ethan-1-one], for which the “effect of mutation F361A on ΔTm compared to WT” value at GCNF LBD F361A was “completely abrogated the interaction”. For the same compound, the “SMRT-ID2 peptide recruitment by GCNF mutants” value in test [1] is given as “does not affect recruitment”. Besides, the “shielded methyl 1H NMR resonances of GCNF LBD perturbed” value on GCNF LBD is 5 out of 7. Further, in test [2], the “effect on recruitment of NCoR ID1 to GCNF” value is given as “did not substantially alter”. In addition, on GCNF LBD F284A, the “effect of mutation F284A on ΔTm compared to WT” value was “no substantial effect”.
